Assay results: patent publication US20230053540A1, “TREATMENT OF LIVER INJURY” (Massachusetts Institute of Technology, priority 2019, published 2023)

Test system: hepatocytes
Assay: Seq-Well scRNA-Seq of hepatocytes after APAP overdose (signature scores, DEG vs untreated)
Format: in vivo, mouse

SMILES: CC(=O)Nc1ccc(O)cc1 [APAP, acetaminophen]
- mt-Co2 pct.1 (APAP vs. UT): 0.157
- mt-Co3 avg_logFC (APAP vs. UT): −0.9584
- mt-Co3 pct.1 (APAP vs. UT): 0.198
- mt-Cytb avg_logFC (APAP vs. UT): −0.8775
- mt-Cytb pct.1 (APAP vs. UT): 0.971
- mt-Nd1 avg_logFC (APAP vs. UT): −0.76
- mt-Nd1 pct.1 (APAP vs. UT): 0.978
- mt-Nd2 avg_logFC (APAP vs. UT): −0.8325
- mt-Nd2 pct.1 (APAP vs. UT): 0.978
- mt-Nd4 avg_logFC (APAP vs. UT): −1.116
- mt-Nd4 pct.1 (APAP vs. UT): 0.942
- mt-Nd5 avg_logFC (APAP vs. UT): −0.7797
- mt-Nd5 pct.1 (APAP vs. UT): 0.942
- mt-Rnr1 avg_logFC (APAP vs. UT): −0.3538
- mt-Rnr1 pct.1 (APAP vs. UT): 1
- mt-Rnr2 avg_logFC (APAP vs. UT): −0.5458
- mt-Rnr2 pct.1 (APAP vs. UT): 1
- n-R5-8s1 avg_logFC (APAP vs. UT): 0.6965
- n-R5-8s1 pct.1 (APAP vs. UT): 0.268
- 1700017B05Rik avg_logFC (cluster A6 (APAP 6 hr)): 0.2894
- 1700017B05Rik pct.1 (cluster A6 (APAP 6 hr)): 0.255
- 2010003K11Rik avg_logFC (cluster A6 (APAP 6 hr)): 0.4872
- 2010003K11Rik pct.1 (cluster A6 (APAP 6 hr)): 0.396
- Abca1 avg_logFC (cluster A6 (APAP 6 hr)): 0.5058
- Abca1 pct.1 (cluster A6 (APAP 6 hr)): 0.604
- Abhd2 avg_logFC (cluster A6 (APAP 6 hr)): 0.3593
- Abhd2 pct.1 (cluster A6 (APAP 6 hr)): 0.37
- Agpat9 avg_logFC (cluster A6 (APAP 6 hr)): 0.2968
- Agpat9 pct.1 (cluster A6 (APAP 6 hr)): 0.277
- Alb avg_logFC (cluster A6 (APAP 6 hr)): 0.4181
- Alb pct.1 (cluster A6 (APAP 6 hr)): 1
- Apoa4 avg_logFC (cluster A6 (APAP 6 hr)): 0.945
- Apoa4 pct.1 (cluster A6 (APAP 6 hr)): 0.721
- Apob avg_logFC (cluster A6 (APAP 6 hr)): 0.3564
- Apob pct.1 (cluster A6 (APAP 6 hr)): 0.99
- Apobec1 avg_logFC (cluster A6 (APAP 6 hr)): 0.2824
- Apobec1 pct.1 (cluster A6 (APAP 6 hr)): 0.239
- App avg_logFC (cluster A6 (APAP 6 hr)): 0.3291
- App pct.1 (cluster A6 (APAP 6 hr)): 0.315
- Asl avg_logFC (cluster A6 (APAP 6 hr)): 0.434
- Asl pct.1 (cluster A6 (APAP 6 hr)): 0.826
- B4galt5 avg_logFC (cluster A6 (APAP 6 hr)): 0.402
- B4galt5 pct.1 (cluster A6 (APAP 6 hr)): 0.332
- Bach1 avg_logFC (cluster A6 (APAP 6 hr)): 0.6724
- Bach1 pct.1 (cluster A6 (APAP 6 hr)): 0.461
- Bcl2l1 avg_logFC (cluster A6 (APAP 6 hr)): 0.6863
- Bcl2l1 pct.1 (cluster A6 (APAP 6 hr)): 0.501
- Btg1 avg_logFC (cluster A6 (APAP 6 hr)): 0.4265
- Btg1 pct.1 (cluster A6 (APAP 6 hr)): 0.356
- Btg2 avg_logFC (cluster A6 (APAP 6 hr)): 0.5388
- Btg2 pct.1 (cluster A6 (APAP 6 hr)): 0.549
- C1qa avg_logFC (cluster A6 (APAP 6 hr)): 0.471
- C1qa pct.1 (cluster A6 (APAP 6 hr)): 0.174
- C1qb avg_logFC (cluster A6 (APAP 6 hr)): 0.5946
- C1qb pct.1 (cluster A6 (APAP 6 hr)): 0.234
- C1qc avg_logFC (cluster A6 (APAP 6 hr)): 0.5477
- C1qc pct.1 (cluster A6 (APAP 6 hr)): 0.172
- C230081A13Rik avg_logFC (cluster A6 (APAP 6 hr)): 0.4148
- C230081A13Rik pct.1 (cluster A6 (APAP 6 hr)): 0.279
- Ccl6 avg_logFC (cluster A6 (APAP 6 hr)): 0.7552
- Ccl6 pct.1 (cluster A6 (APAP 6 hr)): 0.274
- Cd5l avg_logFC (cluster A6 (APAP 6 hr)): 0.5663
- Cd5l pct.1 (cluster A6 (APAP 6 hr)): 0.21
- Cd14 avg_logFC (cluster A6 (APAP 6 hr)): 0.3587
- Cd14 pct.1 (cluster A6 (APAP 6 hr)): 0.153
- Cd44 avg_logFC (cluster A6 (APAP 6 hr)): 0.2929
- Cd44 pct.1 (cluster A6 (APAP 6 hr)): 0.115
- Cd53 avg_logFC (cluster A6 (APAP 6 hr)): 0.2561
- Cd53 pct.1 (cluster A6 (APAP 6 hr)): 0.103
- Cd74 avg_logFC (cluster A6 (APAP 6 hr)): 0.4419
- Cd74 pct.1 (cluster A6 (APAP 6 hr)): 0.155
- Cd97 avg_logFC (cluster A6 (APAP 6 hr)): 0.3303
- Cd97 pct.1 (cluster A6 (APAP 6 hr)): 0.115
- Cd163 avg_logFC (cluster A6 (APAP 6 hr)): 0.4066
- Cd163 pct.1 (cluster A6 (APAP 6 hr)): 0.146
- Cdkn1a avg_logFC (cluster A6 (APAP 6 hr)): 1.099
- Cdkn1a pct.1 (cluster A6 (APAP 6 hr)): 0.702
- Cers6 avg_logFC (cluster A6 (APAP 6 hr)): 0.4774
- Cers6 pct.1 (cluster A6 (APAP 6 hr)): 0.332
- Ces1d avg_logFC (cluster A6 (APAP 6 hr)): 0.3854
- Ces1d pct.1 (cluster A6 (APAP 6 hr)): 0.859
- Cfp avg_logFC (cluster A6 (APAP 6 hr)): 0.3251
- Cfp pct.1 (cluster A6 (APAP 6 hr)): 0.143
- Chic2 avg_logFC (cluster A6 (APAP 6 hr)): 0.39
- Chic2 pct.1 (cluster A6 (APAP 6 hr)): 0.37
- Chka avg_logFC (cluster A6 (APAP 6 hr)): 1.387
- Chka pct.1 (cluster A6 (APAP 6 hr)): 0.716
- Cidec avg_logFC (cluster A6 (APAP 6 hr)): 0.3068
- Cidec pct.1 (cluster A6 (APAP 6 hr)): 0.253
- Clec4f avg_logFC (cluster A6 (APAP 6 hr)): 0.9909
- Clec4f pct.1 (cluster A6 (APAP 6 hr)): 0.339
- Clec4d avg_logFC (cluster A6 (APAP 6 hr)): 0.2622
- Clec4d pct.1 (cluster A6 (APAP 6 hr)): 0.107
- Cltc avg_logFC (cluster A6 (APAP 6 hr)): 0.6346
- Cltc pct.1 (cluster A6 (APAP 6 hr)): 0.661
- Creb3l2 avg_logFC (cluster A6 (APAP 6 hr)): 0.3363
- Creb3l2 pct.1 (cluster A6 (APAP 6 hr)): 0.329
- Ctsl avg_logFC (cluster A6 (APAP 6 hr)): 0.4384
- Ctsl pct.1 (cluster A6 (APAP 6 hr)): 0.878
- Ctss avg_logFC (cluster A6 (APAP 6 hr)): 0.7031
- Ctss pct.1 (cluster A6 (APAP 6 hr)): 0.212
